Results from publication PMC2909451 (European journal of pharmaceutical sciences : official …, 2010).
Where a name gives a salt, the structure may show the parent alone. Read-outs that look alike come from different tables or passages of the source.

Key:
[1] = molecular target: T1, excitatory amino acid transporters (SLC1A6, EAAT4) (Rattus norvegicus, UniProt O35921); test: EAAT4 cis-inhibition of glutamate uptake in stably transfected HEK 293 cells; format: cell-based; details: for potency estimated from few doses: HEK293, read-out: Ki estimated from one concentration
T1 sequence (O35921 1-561): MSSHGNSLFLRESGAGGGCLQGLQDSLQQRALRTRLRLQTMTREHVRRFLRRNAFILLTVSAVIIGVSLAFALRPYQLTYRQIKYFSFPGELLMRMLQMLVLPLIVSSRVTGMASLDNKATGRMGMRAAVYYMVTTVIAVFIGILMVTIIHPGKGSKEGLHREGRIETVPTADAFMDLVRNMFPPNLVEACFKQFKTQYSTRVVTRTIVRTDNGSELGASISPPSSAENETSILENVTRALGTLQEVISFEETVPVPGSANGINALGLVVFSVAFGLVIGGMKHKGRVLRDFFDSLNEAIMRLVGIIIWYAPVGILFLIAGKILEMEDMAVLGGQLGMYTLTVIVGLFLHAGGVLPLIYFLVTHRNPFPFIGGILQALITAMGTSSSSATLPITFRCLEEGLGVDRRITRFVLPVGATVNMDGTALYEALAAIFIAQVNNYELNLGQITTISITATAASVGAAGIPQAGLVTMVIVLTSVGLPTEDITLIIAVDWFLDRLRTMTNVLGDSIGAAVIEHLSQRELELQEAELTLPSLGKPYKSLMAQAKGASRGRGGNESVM

[2] = molecular target: T2, human organic cation/carnitine transporter (SLC22A5, OCTN2) (Homo sapiens, UniProt O76082); test: OCTN2 cis-inhibition of L-carnitine uptake in OCTN2-MDCK cells; format: cell-based; details: for potency estimated from few doses: read-out: Ki estimated from one concentration
T2 sequence (O76082 1-557): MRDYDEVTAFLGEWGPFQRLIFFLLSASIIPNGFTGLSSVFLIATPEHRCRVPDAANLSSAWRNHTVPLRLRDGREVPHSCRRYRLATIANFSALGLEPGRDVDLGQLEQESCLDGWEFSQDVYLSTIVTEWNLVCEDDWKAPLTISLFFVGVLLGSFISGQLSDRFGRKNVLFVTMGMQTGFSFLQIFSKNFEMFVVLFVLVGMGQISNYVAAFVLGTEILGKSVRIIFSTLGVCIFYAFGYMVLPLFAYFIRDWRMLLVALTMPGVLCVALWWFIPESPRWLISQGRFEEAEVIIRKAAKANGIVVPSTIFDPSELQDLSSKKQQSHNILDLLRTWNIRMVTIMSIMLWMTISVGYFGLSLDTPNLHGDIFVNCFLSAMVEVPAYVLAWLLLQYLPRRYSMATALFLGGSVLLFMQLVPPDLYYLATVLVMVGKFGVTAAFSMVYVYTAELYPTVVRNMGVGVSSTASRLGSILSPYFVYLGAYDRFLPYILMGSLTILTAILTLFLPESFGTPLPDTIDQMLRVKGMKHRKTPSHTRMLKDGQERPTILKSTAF

[3] = molecular target: T3, human apical sodium-dependent transporter (SLC10A2, ASBT) (Homo sapiens, UniProt Q12908)
T3 sequence (Q12908 1-348): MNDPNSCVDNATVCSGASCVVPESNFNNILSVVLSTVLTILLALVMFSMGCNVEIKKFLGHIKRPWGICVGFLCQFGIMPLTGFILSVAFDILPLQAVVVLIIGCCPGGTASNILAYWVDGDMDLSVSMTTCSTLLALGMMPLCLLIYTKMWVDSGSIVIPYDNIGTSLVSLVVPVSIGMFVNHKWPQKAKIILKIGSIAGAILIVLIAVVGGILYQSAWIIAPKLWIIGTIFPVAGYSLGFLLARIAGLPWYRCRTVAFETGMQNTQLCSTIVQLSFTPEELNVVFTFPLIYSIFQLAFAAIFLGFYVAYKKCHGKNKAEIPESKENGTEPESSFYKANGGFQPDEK

[4] = molecular target: T3, human apical sodium-dependent transporter (SLC10A2, ASBT); test: ASBT cis-inhibition of taurocholate uptake in ASBT-MDCK cells; details: for potency estimated from few doses: read-out: Ki estimated from one concentration
[5] = Precipitation / solubility of inhibitor in transport buffer; format: physicochemical; details: for precipitation / solubility in donor solution: ASBT inhibition study, 1-[…] DMSO for low water soluble compounds; for highest concentration at which no precipitation was observed: transport buffer of the ASBT inhibition study, precipitation observed above it
[6] = Ki, inhibitor concentration range 0-5 μM
[7] = Ki, inhibitor concentration range 0-10 μM
[8] = Ki, inhibitor concentration range 0-20 μM
[9] = Ki, inhibitor concentration range 0-50 μM
[10] = Ki, inhibitor concentration range 0-100 μM
[11] = Ki, inhibitor concentration range 0-200 μM
[12] = Reference Ki, from the comprehensive inhibition profile
[13] = Ki, inhibitor concentration range 0-[…]
[14] = Ki, inhibitor concentration range 0-500 μM
[15] = Ki, inhibitor concentration range 0-50 μM, mean±S.E.
[16] = Ki, inhibitor concentration range 0-100 μM, mean±S.E.
[17] = Ki, inhibitor concentration range 0-200 μM, mean±S.E.
[18] = Ki, inhibitor concentration range 0-500 μM, mean±S.E.
[19] = Ki, inhibitor concentration range 0-1000 μM, mean±S.E.
[20] = Ki, inhibitor concentrations 0, 25 μM (Table 2), mean±S.E.
[21] = read-out: percent taurocholate inhibited at the highest inhibitor concentration
[22] = Ki, inhibitor concentration range 0-10 μM, mean±S.E.
[23] = Ki, inhibitor concentration range 0-25 μM, mean±S.E.

## N[C@H](CC(=O)O)C(=O)O [D-Aspartic acid]
[1]
  potency estimated from few doses: 8.4 ± 0.81 µM
[1]; [6]
  Ki: 9.06 ± 1.51 µM
[1]; [7]
  Ki: 8.72 ± 0.76 µM
[1]; [8]
  Ki: 8.58 ± 0.59 µM
[1]; [9]
  Ki: 8.95 ± 0.57 µM
[1]; [10]
  Ki: 9.21 ± 0.57 µM
[1]; [11]
  Ki: 9.54 ± 0.75 µM
[1]; [12]
  Ki: 9.54 µM

## C[N+](C)(C)C[C@@H](O)CC(=O)[O-] [D-carnitine]
[2]; Ki, inhibitor concentration range 0-1 μM
  Ki: 8.9 ± 4 µM
[2]; [6]
  Ki: 10.2 ± 1.1 µM
[2]; [7]
  Ki: 11.5 ± 0.9 µM
[2]; [8]
  Ki: 11.8 ± 0.7 µM
[2]; [9]
  Ki: 12 ± 0.6 µM
[2]; [10]
  Ki: 12.1 ± 0.5 µM
[2]; [11]
  Ki: 12.2 ± 0.5 µM
[2]; [13]
  Ki: 9 ± 1.5 µM
[2]; [12]
  Ki: 12.2 µM
[2]
  potency estimated from few doses: 12.2 ± 0.5 µM

## COc1cccc2c1C(=O)c1c(O)c3c(c(O)c1C2=O)C[C@@](O)(C(C)=O)C[C@@H]3O[C@H]1C[C@H](N)[C@H](O)[C@H](C)O1 [Daunorubicin hydrochloride, daunorubicin hydrochloride]
[2]; [10]
  Ki: 424 ± 122 µM
[2]; [11]
  Ki: 375 ± 63 µM
[2]; [14]
  Ki: 443 ± 56 µM
[2]; Ki, inhibitor concentration range 0-1000 μM
  Ki: 484 ± 48 µM
[2]; Ki, inhibitor concentration range 0-1500 μM
  Ki: 496 ± 41 µM
[2]; [12]
  Ki: 496 µM
[2]
  potency estimated from few doses: 488 ± 47 µM

## N[C@@H](CC(=O)O)C(=O)O [L-Aspartic acid]
[1]
  potency estimated from few doses: 3.03 ± 0.3 µM
[1]; [6]
  Ki: 1.72 ± 0.14 µM
[1]; [7]
  Ki: 1.77 ± 0.12 µM
[1]; [8]
  Ki: 1.83 ± 0.14 µM
[1]; [9]
  Ki: 1.88 ± 0.18 µM
[1]; [10]
  Ki: 1.92 ± 0.23 µM
[1]; [13]
  Ki: 2.01 ± 0.13 µM
[1]; [12]
  Ki: 1.92 µM

## N=C(N)c1ccc(OCCCCCOc2ccc(C(=N)N)cc2)cc1 [Pentamidine Isethionate, pentamidine isethionate]
[3]; 50 µM
  inhibition: 10.7%
[3]; 100 µM
  inhibition: 27.9%
[3]; 500 µM
  inhibition: 62.8%
[4]; [15]
  Ki: 253 ± 126 µM
[4]; [16]
  Ki: 189 ± 40 µM
[4]; [17]
  Ki: 147 ± 23 µM
[4]; [18]
  Ki: 164 ± 20 µM
[4]; [19]
  Ki: 174 ± 19 µM
[4]; [20]
  Ki: 134 ± 82 µM
[4]; [12]
  Ki: 174 µM
[4]
  potency estimated from few doses: 194 ± 27 µM
[4]; [21]
  inhibition at 25 µM: 10.9%
  inhibition at 200 µM: 52.7%
  inhibition at 1000 µM: 74.4%

## O=C(O)C[C@H](O)C[C@H](O)/C=C/c1c(C2CC2)nc2ccccc2c1-c1ccc(F)cc1 [Pitavastatin]
[3]; 50 µM
  inhibition: 36.5%
[3]; 100 µM
  inhibition: 52.4%
[3]; 500 µM
  inhibition: 78.6%
[4]; Ki, inhibitor concentration range 0-5 μM, mean±S.E.
  Ki: 27.9 ± 7.3 µM
[4]; [22]
  Ki: 29.7 ± 5.9 µM
[4]; [23]
  Ki: 54.1 ± 10.9 µM
[4]; [15]
  Ki: 59.8 ± 7.5 µM
[4]; [16]
  Ki: 60.9 ± 5.3 µM
[4]; [17]
  Ki: 64.9 ± 4.8 µM
[4]; [18]
  Ki: 67.6 ± 4.8 µM
[4]; [12]
  Ki: 67.6 µM
[4]
  potency estimated from few doses: 56.1 ± 4.4 µM
[4]; [21]
  inhibition at 5 µM: 10.4%
  inhibition at 10 µM: 14.4%
  inhibition at 25 µM: 22.7%
  inhibition at 200 µM: 64.6%

## CC(C)c1nc(N(C)S(C)(=O)=O)nc(-c2ccc(F)cc2)c1/C=C/[C@@H](O)C[C@@H](O)CC(=O)O [Rosuvastatin]
[3]; 50 µM
  inhibition: 19.4%
[3]; 100 µM
  inhibition: 37.8%
[3]; 500 µM
  inhibition: 71%
[4]; [22]
  Ki: 46.7 ± 14.4 µM
[4]; [15]
  Ki: 148 ± 33 µM
[4]; [16]
  Ki: 118 ± 15 µM
[4]; [17]
  Ki: 115 ± 10 µM
[4]; [18]
  Ki: 117 ± 8 µM
[4]; Ki, inhibitor concentrations 0, 5 μM (Table 2), mean±S.E.
  Ki: 196 ± 423 µM
[4]; [20]
  Ki: 147 ± 67 µM
[4]; [12]
  Ki: 117 µM
[4]
  potency estimated from few doses: 123 ± 11 µM
[4]; [21]
  inhibition at 5 µM: 1.54%
  inhibition at 10 µM: 11.7%
  inhibition at 25 µM: 8.9%
  inhibition at 200 µM: 53.3%

## CN1CCN(CC/C=C2/c3ccccc3Sc3ccc(S(=O)(=O)N(C)C)cc32)CC1 [Thiothixene, thiothixene]
[3]; 500 µM
  inhibition: 25.7%
[4]; [17]
  Ki: 1030 ± 344 µM
[4]; [18]
  Ki: 913 ± 115 µM
[4]; [19]
  Ki: 1110 ± 136 µM
[4]; Ki, inhibitor concentration range 0-5000 μM, mean±S.E.
  Ki: 917 ± 111 µM
[4]; [12]
  Ki: 917 µM
[4]
  potency estimated from few doses: 905 ± 105 µM
[4]; [21]
  inhibition at 200 µM: 34.6%
  inhibition at 1000 µM: 11%
  inhibition at 5000 µM: 83.3%

## Clc1ccc(C(Cn2ccnc2)OCc2ccsc2Cl)c(Cl)c1 (centres unmarked) [Tioconazole, tioconazole]
[3]; 50 µM
  inhibition: 47.7%
[3]; 100 µM
  inhibition: 63.7%
[3]; 500 µM
  inhibition: 87.1%
[4]; [23]
  Ki: 32.3 ± 6.3 µM
[4]; [15]
  Ki: 32.7 ± 4.7 µM
[4]; [17]
  Ki: 33.7 ± 3.1 µM
[4]; [18]
  Ki: 33.6 ± 2.8 µM
[4]; [19]
  Ki: 34.1 ± 2.7 µM
[4]; [12]
  Ki: 34.1 µM
[4]; inhibitor concentration range 0-100 μM, mean±S.E.
  Ki: 32.8 ± 3.6 µM
[4]
  potency estimated from few doses: 33 ± 6.2 µM
[4]; [21]
  inhibition at 25 µM: 32.2%
  inhibition at 200 µM: 74%
  inhibition at 1000 µM: 87.2%

## CC[C@]1(O)C[C@H]2CN(CCc3c([nH]c4ccccc34)[C@@](C(=O)OC)(c3cc4c(cc3OC)N(C=O)[C@H]3[C@@](O)(C(=O)OC)[C@H](OC(C)=O)[C@]5(CC)C=CCN6CC[C@]43[C@@H]65)C2)C1 [Vincristine sulfate]
[2]; [7]
  Ki: 14.9 ± 2 µM
[2]; [8]
  Ki: 14.5 ± 1.2 µM
[2]; [9]
  Ki: 14.6 ± 1.5 µM
[2]; [10]
  Ki: 15.7 ± 1.6 µM
[2]; [11]
  Ki: 15.9 ± 1.5 µM
[2]; [14]
  Ki: 15.9 ± 1.4 µM
[2]; [12]
  Ki: 15.9 µM
[2]
  potency estimated from few doses: 14.7 ± 3.1 µM

## CCOC(=O)C1=C(C)NC(C)=C(C(=O)OC)C1c1cccc([N+](=O)[O-])c1 (centres unmarked) [nitrendipine]
[5]
  precipitation / solubility in donor solution: incomplete solubility at higher drug concentrations
  highest concentration at which no precipitation was observed: 50 µM
[3]; 50 µM
  inhibition: 39.7%
[4]; [15]
  Ki: 43.9 µM

## Cc1cccc(Nc2ccncc2S(=O)(=O)NC(=O)NC(C)C)c1 [torsemide]
[5]
  precipitation / solubility in donor solution: incomplete solubility at higher drug concentrations
  highest concentration at which no precipitation was observed: 1000 µM
[4]; [19]
  Ki: 460 µM
[4]; [21]
  inhibition at 1000 µM: 58.4%
